Laboratory results: PubChem BioAssay AID248 (DTP/NCI, 2004)
Where “and” joins values, the source holds several entries; their conditions need not be identical. Identical values can stand only once. Toxic doses and inconclusive results are not listed. Rule as the data show it: active = T/C of 150% or more; inactive = T/C below 125%.

System: L1210 leukemia ip in BDF1 mice, survival T/C
Test: NCI In Vivo Anticancer Drug Screen. Data for tumor model L1210 Leukemia (intraperitoneal) in B6D2F1 (BDF1) mice
Details: endpoint: mean survival time, higher = longer survival
Procedure, shortened: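 Ratio derived from survival: compound-dosed mice over vehicle-dosed mice, all bearing a transplantable tumor.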

[1] = dose: 100.0 mg/kg/injection, schedule: Q01DX001 (ip), vehicle: saline
[2] = dose: 100.0 mg/kg/injection, schedule: Q01DX009 (ip), vehicle: saline
[3] = dose: 200.0 mg/kg/injection, schedule: Q01DX001 (ip), vehicle: saline
[4] = dose: 200.0 mg/kg/injection, schedule: Q01DX009 (ip), vehicle: saline
[5] = dose: 400.0 mg/kg/injection, schedule: Q01DX001 (ip), vehicle: saline
[6] = dose: 100.0 mg/kg/injection, schedule: Q01DX001 (ip), vehicle: Klucel (hydroxypropylcellulose) (HPC)
[7] = dose: 200.0 mg/kg/injection, schedule: Q01DX001 (ip), vehicle: Klucel (hydroxypropylcellulose) (HPC)
[8] = dose: 50.0 mg/kg/injection, schedule: Q01DX009 (ip), vehicle: Klucel (hydroxypropylcellulose) (HPC)
[9] = dose: 50.0 mg/kg/injection, schedule: Q04DX003 (ip), vehicle: Klucel (hydroxypropylcellulose) (HPC)
[10] = dose: 100.0 mg/kg/injection, schedule: Q01DX009 (ip), vehicle: Klucel (hydroxypropylcellulose) (HPC)
[11] = dose: 100.0 mg/kg/injection, schedule: Q04DX003 (ip), vehicle: Klucel (hydroxypropylcellulose) (HPC)
[12] = dose: 200.0 mg/kg/injection, schedule: Q01DX009 (ip), vehicle: Klucel (hydroxypropylcellulose) (HPC)
[13] = dose: 200.0 mg/kg/injection, schedule: Q04DX003 (ip), vehicle: Klucel (hydroxypropylcellulose) (HPC)
[14] = dose: 400.0 mg/kg/injection, schedule: Q04DX003 (ip), vehicle: Klucel (hydroxypropylcellulose) (HPC)
[15] = dose: 100.0 mg/kg/injection, schedule: Q04DX003 (ip), vehicle: saline with Tween-80
[16] = dose: 200.0 mg/kg/injection, schedule: Q04DX003 (ip), vehicle: saline with Tween-80
[17] = dose: 400.0 mg/kg/injection, schedule: Q04DX003 (ip), vehicle: saline with Tween-80

Measured: T/C

CC(N(N=O)c1ccccc1)S(=O)(=O)O (configuration not stated)
inactive: [1] 104 % of control | [2] 92 % of control | [3] 96 % of control | [4] 99 % of control | [5] 98 % of control

OCc1ccccc1CN1CCCC1
inactive: [6] 94 % of control | [7] 96 % of control | dose: 400.0 mg/kg/injection, schedule: Q01DX001 (ip), vehicle: Klucel (hydroxypropylcellulose) (HPC) 97 % of control

COc1ccc(CN(CCOC(=O)c2ccc(OC)cc2)CCN(CCOC(=O)c2ccc(OC)cc2)Cc2ccc(OC)cc2)cc1
inactive: dose: 12.5 mg/kg/injection, schedule: Q01DX009 (ip), vehicle: other 91 % of control | dose: 25.0 mg/kg/injection, schedule: Q01DX009 (ip), vehicle: other 86 % of control | dose: 25.0 mg/kg/injection, schedule: Q01DX009 (ip), vehicle: water 88 % of control | dose: 50.0 mg/kg/injection, schedule: Q01DX009 (ip), vehicle: other 91 % of control | dose: 50.0 mg/kg/injection, schedule: Q01DX009 (ip), vehicle: water 93 % of control | dose: 100.0 mg/kg/injection, schedule: Q01DX009 (ip), vehicle: other 88 % of control | dose: 100.0 mg/kg/injection, schedule: Q01DX009 (ip), vehicle: water 87 % of control | dose: 200.0 mg/kg/injection, schedule: Q01DX009 (ip), vehicle: water 88 % of control | dose: 400.0 mg/kg/injection, schedule: Q01DX009 (ip), vehicle: water 92 % of control

O=[N+]([O-])C1CCCCCCCCCCC1
inactive: dose: 100.0 mg/kg/injection, schedule: Q01DX001 (ip), vehicle: other 96 % of control | dose: 200.0 mg/kg/injection, schedule: Q01DX001 (ip), vehicle: other 100 % of control | dose: 400.0 mg/kg/injection, schedule: Q01DX001 (ip), vehicle: other 96 % of control

COc1ccc(N=Cc2ccc(C=Nc3ccc(OC)cc3)cc2)cc1
inactive: dose: 25.0 mg/kg/injection, schedule: Q04DX003 (ip), vehicle: Klucel (hydroxypropylcellulose) (HPC) 96 % of control | [8] 90 % of control | [9] 98 % of control | [10] 97 % of control | [11] 96 % of control | [12] 88 % of control

CCOCCOCCOC(C)Oc1ccccc1OC (configuration not stated)
inactive: dose: 100.0 mg/kg/injection, schedule: Q04DX002 (ip), vehicle: saline 111 % of control | dose: 200.0 mg/kg/injection, schedule: Q04DX002 (ip), vehicle: saline 96 % of control | dose: 400.0 mg/kg/injection, schedule: Q04DX002 (ip), vehicle: saline 114 % of control

CC(O)C(Cc1ccccc1)NC(=O)C(=O)NC(Cc1ccccc1)C(C)O (configuration not stated)
inactive: [11] 95 % of control | [13] 90 % of control | [14] 92 % of control

O=C1OC(c2ccccc2)CC1N1CCCCC1 (configuration not stated)
inactive: dose: 100.0 mg/kg/injection, schedule: Q01DX001 (ip), vehicle: saline sonified 109 % of control | dose: 200.0 mg/kg/injection, schedule: Q01DX001 (ip), vehicle: saline sonified 105 % of control

O=C(O)/C(=C\c1ccc([N+](=O)[O-])cc1)c1cccc2ccccc12
inactive: [9] 94 % of control | [10] 93 % of control | [11] 89 % of control | [12] 98 % of control | [13] 91 % of control

CC[n+]1ccc(C)c2ccccc21
inactive: dose: 12.5 mg/kg/injection, schedule: Q04DX002 (ip), vehicle: saline 102 % of control and 103 % of control | dose: 12.5 mg/kg/injection, schedule: Q04DX003 (ip), vehicle: saline 103 % of control | dose: 25.0 mg/kg/injection, schedule: Q04DX002 (ip), vehicle: saline 95 % of control and 98 % of control | dose: 25.0 mg/kg/injection, schedule: Q04DX003 (ip), vehicle: saline 100 % of control | dose: 50.0 mg/kg/injection, schedule: Q04DX002 (ip), vehicle: saline 95 % of control and 102 % of control | dose: 50.0 mg/kg/injection, schedule: Q04DX003 (ip), vehicle: saline 105 % of control

CCCCSCCSC(=N)N
inactive: dose: 25.0 mg/kg/injection, schedule: Q04DX002 (ip), vehicle: saline with Tween-80 100 % of control | dose: 50.0 mg/kg/injection, schedule: Q04DX002 (ip), vehicle: saline with Tween-80 103 % of control | dose: 100.0 mg/kg/injection, schedule: Q04DX002 (ip), vehicle: saline with Tween-80 103 % of control

C=CCNC(=S)Nc1cccc(OC(=O)Nc2ccc(Cl)c(Cl)c2)c1
inactive: [10] 87 % of control | [12] 92 % of control

c1ccc(CC2CCCC2)cc1
inactive: [11] 93 % of control | [13] 95 % of control | dose: 300.0 mg/kg/injection, schedule: Q04DX003 (ip), vehicle: Klucel (hydroxypropylcellulose) (HPC) 106 % of control

C=CC1COC=C2CN3CCc4cc(OC)c(O)cc4C3CC21 (configuration not stated)
inactive: dose: 50.0 mg/kg/injection, schedule: Q01DX009 (ip), vehicle: saline 100 % of control | [2] 104 % of control | dose: 100.0 mg/kg/injection, schedule: Q04DX003 (ip), vehicle: saline 100 % of control | [4] 98 % of control | dose: 200.0 mg/kg/injection, schedule: Q04DX003 (ip), vehicle: saline 101 % of control | dose: 400.0 mg/kg/injection, schedule: Q04DX003 (ip), vehicle: saline 97 % of control

Cc1cccc(/C=N/N(C)C(N)=S)n1
inactive: dose: 100.0 mg/kg/injection, schedule: Q01DX001 (ip), vehicle: carboxymethylcellulose (CMC) 102 % of control | dose: 200.0 mg/kg/injection, schedule: Q01DX001 (ip), vehicle: carboxymethylcellulose (CMC) 106 % of control

Sc1cccc2cccnc12.[Ni]
inactive: dose: 50.0 mg/kg/injection, schedule: Q01DX001 (ip), vehicle: saline 111 % of control | [1] 98 % of control | [3] 98 % of control | [5] 98 % of control

CCCOC(=O)Cc1cccc2ccccc12
inactive: dose: 222.0 mg/kg/injection, schedule: Q01DX Z (ip), vehicle: saline 90 % of control | dose: 333.0 mg/kg/injection, schedule: Q01DX Z (ip), vehicle: saline 96 % of control | dose: 500.0 mg/kg/injection, schedule: Q01DX Z (ip), vehicle: saline 96 % of control

Cc1cccc(NCc2ccc(Cl)cc2Cl)c1
inactive: dose: 50.0 mg/kg/injection, schedule: Q01DX009 (ip), vehicle: saline with Tween-80 106 % of control | dose: 100.0 mg/kg/injection, schedule: Q01DX009 (ip), vehicle: saline with Tween-80 103 % of control | [15] 93 % of control and 88 % of control | dose: 200.0 mg/kg/injection, schedule: Q01DX009 (ip), vehicle: saline with Tween-80 98 % of control | [16] 95 % of control | [17] 96 % of control and 101 % of control

COC(=O)C(CCC(=O)O)NC(=O)OCc1ccccc1 (configuration not stated)
inactive: dose: 25.0 mg/kg/injection, schedule: Q01DX009 (ip), vehicle: Klucel (hydroxypropylcellulose) (HPC) 89 % of control | dose: 50.0 mg/kg/injection, schedule: Q01DX001 (ip), vehicle: Klucel (hydroxypropylcellulose) (HPC) 94 % of control | [8] 97 % of control | [6] 103 % of control | [11] 96 % of control | [7] 97 % of control | [13] 86 % of control

ClC(Cl)(Cl)C(Nc1ccccc1)Nc1ccccc1
inactive: [10] 87 % of control | [11] 94 % of control | [12] 96 % of control | [13] 90 % of control | dose: 400.0 mg/kg/injection, schedule: Q01DX009 (ip), vehicle: Klucel (hydroxypropylcellulose) (HPC) 91 % of control | [14] 92 % of control

c1ccc(CCc2nccc3ccccc23)cc1
inactive: dose: 75.0 mg/kg/injection, schedule: Q01DX001 (ip), vehicle: saline 96 % of control | dose: 150.0 mg/kg/injection, schedule: Q01DX001 (ip), vehicle: saline 97 % of control

CCCCCCCC(=O)NO
inactive: [15] 98 % of control | [16] 102 % of control | [17] 102 % of control
